Literature values as cited in patent US8968778B2, “Threo-DOPS controlled release formulation” (Lundbeck NA Ltd., priority 2003, dated 2015).

Columns and labels:
[1] = test system: microvessel preparations

| SMILES | Specific uptake in microvessel preparations [1] | Time that increased plasma levels of both molecules (L-threo-DOPS and NE) remain (after oral administration of L-threo-DOPS) | Time of peak plasma levels of L-threo-DOPS (after oral ingestion) | Time of peak NE levels (after oral ingestion of L-threo-DOPS, norepinephrine in plasma) |
| --- | --- | --- | --- | --- |
| N[C@H](C(=O)O)[C@H](O)c1ccc(O)c(O)c1 [threo-DOPS, Threo-3-(3,4-dihydroxyphenyl)serine] | Specific uptake |  |  |  |
| N[C@H](C(=O)O)[C@H](O)c1ccc(O)c(O)c1 [L-threo-DOPS] |  | at least 12 hours | 3 h | 5 h |
